From patent publication USRE47689E1, “Compounds for treating spinal muscular atrophy” (PTC Therapeutics, Inc., priority 2011, dated 2019)

Legend:
[1] = test system: SMN2 minigene (full length SMN2 minigene mRNA containing SMN2 exon 7); assay: SMN2 minigene mRNA splicing RT-qPCR assay in cultured cells; type: cell-based, human; settings: Homo sapiens, HEK293-H; HEK293H cells stably transfected with SMN2-A minigene; 24 hours; 7-point concentration curve; 1.5-fold relative to vehicle-treated cells; read-out: EC1.5x for production of full length SMN2 mRNA
Procedure, shortened: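 HEK293H cells stably carrying the SMN2-A minigene treated 24 h at 37° C with compound (DMSO, 200× stock), then lysed. Multiplex RT-qPCR (SMN primers 0.4 μM final; 40 cycles) measures full-length exon 7-containing minigene mRNA, normalized to GAPDH and to vehicle; EC1.5x derived and binned by stars.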

[2] = test system: Smn protein; assay: Smn protein assay in cultured cells (SMN HTRF); type: cell-based, human; settings: 48 hours; for maximum fold (Fold) increase of Smn protein: SMA patient fibroblast cells, 7-point concentration data, fold increase relative to vehicle control (SMN HTRF); for EC1.5x (concentration giving 1.5-fold Smn protein increase): SMA Type 1 patient fibroblast cells (GM03813), 7-point concentration curve, SMN HTRF, concentration producing 1.5 times Smn protein vs DMSO vehicle control, read-out: EC1.5x for Smn protein expression
Procedure, shortened: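 Lysates in RIPA with protease inhibitors are incubated overnight at room temperature with HTRF anti-SMN antibodies. EC1.5x is derived from fold increase in ΔF over vehicle.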

Row | melting point | SMILES | EC (1.5-fold) [1] | maximum fold (Fold) increase of Smn protein [2] | EC1.5x (concentration giving 1.5-fold Smn protein increase) [2]
1 | 141 to 145 °C | CC(C)NCc1ccc2cc(-c3cn4ccsc4n3)c(=O)oc2c1 [Compound 199, 3-(imidazo[2,1-b][1,3]thiazol-6-yl)-7-[(propan-2-ylamino)methyl]-2H-chromen-2-one] | 1 to 3 µM | ** (fold increase between >1.2 and ≤1.35) | 
2 | 173 to 175 °C | Cc1cn2cc(-c3cc4ccc(N5C[C@@H]6CCN(C)[C@@H]6C5)cc4oc3=O)cc2c(C)n1 [Compound 729, 3-(1,3-dimethylpyrrolo[1,2-a]pyrazin-7-yl)-7-[(3aS,6aS)-1-methylhexahydropyrrolo[3,4-b]pyrrol-5(1H)-yl]-2H-chromen-2-one] | < 0.1 µM | *** (fold increase between >1.35 and ≤1.5) | 1000 to 3000 nM
3 | 115 to 117 °C | COc1ccc(-c2cc3c(F)cc(N4CCN[C@H](C)C4)cc3oc2=O)cc1OC [Compound 416, 3-(3,4-dimethoxyphenyl)-5-fluoro-7-[(3R)-3-methylpiperazin-1-yl]-2H-chromen-2-one] | 1 to 3 µM | ** (fold increase between >1.2 and ≤1.35) | 
4 | 236 to 242 °C | O=c1oc2cc(N3CCCNCC3)cc(F)c2cc1-c1nc2ccccc2[nH]1 [Compound 374, 3-(1H-benzimidazol-2-yl)-7-(1,4-diazepan-1-yl)-5-fluoro-2H-chromen-2-one] | 1 to 3 µM | * (maximum fold increase of ≤1.2) | 
5 | 116 to 118 °C | C[C@H]1CN(c2ccc3cc(-c4cccc(F)c4F)c(=O)oc3c2)CCN1 [Compound 546, 3-(2,3-difluorophenyl)-7-[(3S)-3-methylpiperazin-1-yl]-2H-chromen-2-one] | 3 to 30 µM | * (maximum fold increase of ≤1.2) | 
6 | 166 to 169 °C | Cc1ccc2nc(-c3cc4ccc(CN(C)CCO)cc4oc3=O)cn2c1 [Cpd 148, 7-{[(2-hydroxyethyl)(methyl)amino]methyl}-3-(6-methylimidazo[1,2-a]pyridin-2-yl)-2H-chromen-2-one] | 3 to 30 µM | ***** (fold increase >1.65) | 1000 to 3000 nM
7 | 206 to 211 °C | Cc1cn2cc(-c3cc4ccc(C5CCN(C(C)C)CC5)cc4oc3=O)nc2c(C)n1 [Cpd 773, 3-(6,8-dimethylimidazo[1,2-a]pyrazin-2-yl)-7-[1-(propan-2-yl)piperidin-4-yl]-2H-chromen-2-one] | < 0.1 µM | **** (fold increase between >1.5 and ≤1.65) | < 300 nM
8 | 222 to 226 °C | O=c1oc2cc(CN3CCNCC3)ccc2cc1-c1nc2c(Cl)cccc2s1 [Compound 7, 3-(4-chloro-1,3-benzothiazol-2-yl)-7-(piperazin-1-ylmethyl)-2H-chromen-2-one] | 3 to 30 µM | * (maximum fold increase of ≤1.2) | 
9 | 250 to 258 °C | Cc1nccn2cc(-c3cc4ccc(N5C[C@@H](C)N[C@@H](C)C5)cc4oc3=O)nc12 [Compound 552, 7-[(3R,5S)-3,5-dimethylpiperazin-1-yl]-3-(8-methylimidazo[1,2-a]pyrazin-2-yl)-2H-chromen-2-one] | < 0.1 µM | **** (fold increase between >1.5 and ≤1.65) | < 300 nM
10 | 135 to 137 °C | CC(C)NC(C)c1ccc2cc(-c3nc4ccccc4s3)c(=O)oc2c1 (stereo not drawn) [Compound 144, 3-(1,3-benzothiazol-2-yl)-7-[1-(propan-2-ylamino)ethyl]-2H-chromen-2-one] | 1 to 3 µM | * (maximum fold increase of ≤1.2) | 
11 | 271 to 273 °C | C[C@@H]1CN(c2ccc3cc(-c4cc5ccccc5s4)c(=O)oc3c2)C[C@H](C)N1 [Compound 408, 3-(1-benzothiophen-2-yl)-7-[(3R,5S)-3,5-dimethylpiperazin-1-yl]-2H-chromen-2-one] | 0.3 to 1 µM | * (maximum fold increase of ≤1.2) | 
12 | 224 to 227 °C | Cc1c(-c2cn3cc(Cl)ccc3n2)c(=O)oc2cc(N3CCNCC3)ccc12 [Cpd 112, 3-(6-chloroimidazo[1,2-a]pyridin-2-yl)-4-methyl-7-(piperazin-1-yl)-2H-chromen-2-one] | 3 to 30 µM | * (maximum fold increase of ≤1.2) | 
13 | 189 to 191 °C | COc1cc(-c2cc3ccc(N4CCN[C@@H](C)C4)cc3oc2=O)ccc1F [Compound 577, 3-(4-fluoro-3-methoxyphenyl)-7-[(3S)-3-methylpiperazin-1-yl]-2H-chromen-2-one] | 1 to 3 µM | ** (fold increase between >1.2 and ≤1.35) | 
14 | 184 to 187 °C | Cc1cn2cc(-c3cc4ccc(CCCNC(C)C)cc4oc3=O)nc2c(C)n1 [Compound 858, 3-(6,8-dimethylimidazo[1,2-a]pyrazin-2-yl)-7-[3-(propan-2-ylamino)propyl]-2H-chromen-2-one] | < 0.1 µM | **** (fold increase between >1.5 and ≤1.65) | < 300 nM
15 | 140 to 180 °C (dec.) | Cc1ccc2nc(-c3cc4ccc(N(C)CCN(C)C)cc4oc3=O)cn2c1 [Compound 175, 7-{[2-(dimethylamino)ethyl](methyl)amino}-3-(6-methylimidazo[1,2-a]pyridin-2-yl)-2H-chromen-2-one] | 3 to 30 µM | * (maximum fold increase of ≤1.2) | 
16 | 174 to 178 °C | Cc1cn2cc(-c3ccc4cc(N5CCNCC5)c(=O)oc4c3)ccc2n1 [Cpd 818, 7-(2-methylimidazo[1,2-a]pyridin-6-yl)-3-(piperazin-1-yl)-2H-chromen-2-one] | 1 to 3 µM | * (maximum fold increase of ≤1.2) | 
17 | 224 to 228 °C | CN1CCCN(c2cc(F)c3cc(-c4nc5c(F)cccc5o4)c(=O)oc3c2)CC1 [Compound 369, 5-fluoro-3-(4-fluoro-1,3-benzoxazol-2-yl)-7-(4-methyl-1,4-diazepan-1-yl)-2H-chromen-2-one] | 0.1 to 0.3 µM | ** (fold increase between >1.2 and ≤1.35) | 
18 | 178 to 183 °C | Cc1csc(-c2cc3ccc(N4C[C@@H](C)N[C@@H](C)C4)cc3oc2=O)n1 [Compound 286, 7-[(3R,5S)-3,5-dimethylpiperazin-1-yl]-3-(4-methyl-1,3-thiazol-2-yl)-2H-chromen-2-one] | 1 to 3 µM | * (maximum fold increase of ≤1.2) | 
19 | 168 to 172 °C | Cc1cn2cc(-c3cc4ccc(CCN(C)CCO)cc4oc3=O)nc2c(C)n1 [Compound 871, 3-(6,8-dimethylimidazo[1,2-a]pyrazin-2-yl)-7-{2-[(2-hydroxyethyl)(methyl)amino]ethyl}-2H-chromen-2-one] | < 0.1 µM | **** (fold increase between >1.5 and ≤1.65) | < 300 nM
